Where two headings read alike, the source gives them in different places.

In one data set the target is human VMAT2 (Homo sapiens (Human), UniProt Q05940). The data set can be described thus: VMAT2 radioligand binding, 3H-dihydrotetrabenazine competition on human platelet homogenate. In outline: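 Human platelet homogenate (30 μg membrane protein/well) in DPBS with 1 mM EDTA, pH 7.4; twelve test-compound concentrations competed against 10 nM ³H-dihydrotetrabenazine. Incubated 90 min at 25 °C, bound radioligand collected by filtration on PEI-pretreated glass-fibre filters and counted by scintillation; Ki derived.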
Sequence of human VMAT2 (Q05940 whole entry): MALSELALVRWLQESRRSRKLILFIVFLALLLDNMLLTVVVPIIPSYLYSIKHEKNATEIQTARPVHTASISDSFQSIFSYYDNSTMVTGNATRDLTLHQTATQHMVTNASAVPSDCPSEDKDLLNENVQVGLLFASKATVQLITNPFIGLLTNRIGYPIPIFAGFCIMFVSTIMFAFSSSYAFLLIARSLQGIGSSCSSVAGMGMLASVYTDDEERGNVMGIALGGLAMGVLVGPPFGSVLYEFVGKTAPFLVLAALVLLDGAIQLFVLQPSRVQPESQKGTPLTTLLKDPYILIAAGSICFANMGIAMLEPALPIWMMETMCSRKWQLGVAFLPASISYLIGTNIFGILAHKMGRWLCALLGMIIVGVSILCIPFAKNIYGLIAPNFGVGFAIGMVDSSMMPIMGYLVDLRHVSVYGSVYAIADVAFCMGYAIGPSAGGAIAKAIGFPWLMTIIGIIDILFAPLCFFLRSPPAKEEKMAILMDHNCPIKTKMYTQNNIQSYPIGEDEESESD

A short description of data set [1]: Stability of compounds in human liver microsomes. The note with it: for CLint scaled at 0.5 μM / half-life at 0.5 μM: both sexes, pH 7.4; for CLint scaled at 0.5 μM: liver microsomes, calculated from HLM half-life, read-out: HLM Scaled Intrinsic Clearance; for CLint scaled at 0.5 μM / Predicted Max. Bioavailability (% F) / HLM Predicted Systemic Clearance: human; for half-life at 0.5 μM: 0.5 μM compound, 0.5 mg/mL human liver microsomes, 37° C., maxed at 420 minutes, read-out: HLM Elimination half-life (t1/2, min); for Predicted Max. Bioavailability (% F): predicted from HLM data; for HLM Predicted Systemic Clearance: scaled from HLM half-life (Obach method). It is filed as in vitro ADME. The method, boiled down: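 Compound at 0.5 μM incubated at 37 °C with pooled mixed-gender human liver microsomes (0.5 mg/mL protein) and an NADPH-generating system in pH 7.4 phosphate buffer, sampled 0–60 min. Parent depletion tracked by LC-MS/MS; t1/2 derived from the slope by non-linear regression, with predicted extraction ratio and maximum bioavailability also calculated.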

[2] abbreviates: 10 nM 3H-dihydrotetrabenazine, human platelet homogenate, 25° C., 90 minutes, read-out: VMAT2 Ki.

A word on the Ki: it is a measure of affinity in units of concentration, obtained from inhibition or displacement. `C=C(C)COc1cc2c(cc1OC)[C@H]1C[C@@H](O)[C@H](CC(C)(C)C)CN1CC2` [Compound 4-56, (2R,3R,11bR)-3-(2,2-dimethylpropyl)-10-methoxy-9-[(2-methylprop-2-en-1-yl)oxy]-1H,2H,3H,4H,6H,7H,11bH-pyrido[2,1-a]isoquinolin-2-ol]: the inhibitory constant (Ki) at human VMAT2 (setting [2]) amounted to 0.52 nM. For the same molecule, in data set [1], the CLint scaled at 0.5 μM is 121 mL/min/kg, the half-life at 0.5 μM turned out to be 10 min, the “Predicted Max. Bioavailability (% F)” value is given as 14 % F and the “HLM Predicted Systemic Clearance” value was 17.16 mL/min/kg.
In the case of `COc1cc2c(cc1OCC1(C(F)F)CC1)CCN1C[C@@H](CC(C)(C)C)[C@H](O)C[C@H]21` [Compound 4-57, (2R,3R,11bR)-9-{[1-(difluoromethyl)cyclo-propyl]methoxy}-3-(2,2-dimethylpropyl)-10-methoxy-1H,2H,3H,4H,6H,7H,11bH-pyrido[2,1-a]isoquinolin-2-ol], the inhibition constant Ki on human VMAT2 (setting [2]) worked out at 0.93 nM. In data set [1], the CLint scaled at 0.5 μM is no more than 2.97 mL/min/kg, the half-life at 0.5 μM is no less than 420 min, the “Predicted Max. Bioavailability (% F)” value is no less than 87 % F and the “HLM Predicted Systemic Clearance” value is no more than 2.59 mL/min/kg.
On human VMAT2, `CC[C@@H](O)COc1cc2c(cc1OC)[C@H]1C[C@@H](O)[C@H](CC(C)(C)C)CN1CC2` [Compound 4-58, (2R,3R,11bR)-3-(2,2-dimethylpropyl)-9-[(2R)-2-hydroxybutoxy]-10-methoxy-1H,2H,3H,4H,6H,7H,11bH-pyrido[2,1-a]isoquinolin-2-ol] had a Ki of 1.1 nM. For the same molecule, in data set [1], the CLint scaled at 0.5 μM is 5.99 mL/min/kg, the half-life at 0.5 μM is 208 min, the “Predicted Max. Bioavailability (% F)” value was 77 % F and the “HLM Predicted Systemic Clearance” value was 4.61 mL/min/kg.
`COc1cc2c(cc1OCc1ccc(C#N)o1)CCN1C[C@@H](CC(C)(C)C)[C@H](O)C[C@H]21` [Compound 4-59, 5-({[(2R,3R,11bR)-3-(2,2-dimethylpropyl)-2-hydroxy-10-methoxy-1H,2H,3H,4H,6H,7H,11bH-pyrido[2,1-a]isoquinolin-9-yl]oxy}methyl)furan-2-carbonitrile]: the Ki at human VMAT2 (setting [2]) came out at 1.5 nM. For the same molecule, in data set [1], the CLint scaled at 0.5 μM is 24.8 mL/min/kg, the half-life at 0.5 μM is 50 min, the “Predicted Max. Bioavailability (% F)” value is given as 45 % F and the “HLM Predicted Systemic Clearance” value was 11.08 mL/min/kg.
In the case of `COc1cc2c(cc1OCc1ccccc1)CCN1C[C@@H](CC(C)(C)C)[C@H](O)C[C@H]21` [Compound 4-60, (2R,3R,11bR)-9-(benzyloxy)-3-(2,2-dimethylpropyl)-10-methoxy-1H,2H,3H,4H,6H,7H,11bH-pyrido[2,1-a]isoquinolin-2-ol], the Ki at human VMAT2 (setting [2]) was 3.1 nM. Moreover, in data set [1], the CLint scaled at 0.5 μM was 33.9 mL/min/kg, the half-life at 0.5 μM came to 37 min, the “Predicted Max. Bioavailability (% F)” value is listed as 37 % F and the “HLM Predicted Systemic Clearance” value is 12.58 mL/min/kg.
`COc1cc2c(cc1OCC1(F)CCC1)CCN1C[C@@H](CC(C)(C)C)[C@H](O)C[C@H]21` [Compound 4-61, (2R,3R,11bR)-3-(2,2-dimethylpropyl)-9-[(1-fluorocyclobutyl)methoxy]-10-methoxy-1H,2H,3H,4H,6H,7H,11bH-pyrido[2,1-a]isoquinolin-2-ol]: the Ki at human VMAT2 (setting [2]) stood at 3.5 nM. Besides, in data set [1], the CLint scaled at 0.5 μM was 42 mL/min/kg, the half-life at 0.5 μM stood at 30 min, the “Predicted Max. Bioavailability (% F)” value is recorded as 32 % F and the “HLM Predicted Systemic Clearance” value was 13.55 mL/min/kg.
The matching figures for `COc1cc2c(cc1OCC(O)CC(F)(F)F)CCN1C[C@@H](CC(C)(C)C)[C@H](O)C[C@H]21` (stereo partly drawn) [Compound 4-62, (2R,3R,11bR)-3-(2,2-dimethylpropyl)-10-methoxy-9-(4,4,4-trifluoro-2-hydroxybutoxy)-1H,2H,3H,4H,6H,7H,11bH-pyrido[2,1-a]isoquinolin-2-ol]: 3.7 nM, no more than 2.97 mL/min/kg, no less than 420 min, no less than 87 % F and no more than 2.59 mL/min/kg.
With `COc1cc2c(cc1OCc1ccc(F)cc1)CCN1C[C@@H](CC(C)(C)C)[C@H](O)C[C@H]21` [Compound 4-63, (2R,3R,11bR)-3-(2,2-dimethylpropyl)-9-[(4-fluorophenyl)methoxy]-10-methoxy-1H,2H,3H,4H,6H,7H,11bH-pyrido[2,1-a]isoquinolin-2-ol], the inhibition constant (Ki) on human VMAT2 (setting [2]) stood at 4.2 nM. In data set [1], the CLint scaled at 0.5 μM is 42.3 mL/min/kg, the half-life at 0.5 μM is 29 min, the “Predicted Max. Bioavailability (% F)” value is 32 % F and the “HLM Predicted Systemic Clearance” value was 13.58 mL/min/kg.
Consider `COc1cc2c(cc1OCc1cccc(F)c1)CCN1C[C@@H](CC(C)(C)C)[C@H](O)C[C@H]21` [Compound 4-64, (2R,3R,11bR)-3-(2,2-dimethylpropyl)-9-[(3-fluorophenyl)methoxy]-10-methoxy-1H,2H,3H,4H,6H,7H,11bH-pyrido[2,1-a]isoquinolin-2-ol], for which, at human VMAT2 (setting [2]), the Ki was 5.5 nM. Further, in data set [1], the CLint scaled at 0.5 μM was 38 mL/min/kg, the half-life at 0.5 μM amounted to 33 min, the “Predicted Max. Bioavailability (% F)” value is recorded as 35 % F and the “HLM Predicted Systemic Clearance” value was 13.1 mL/min/kg.
The matching figures for `COc1cc2c(cc1OCC(F)(F)Cl)CCN1C[C@@H](CC(C)(C)C)[C@H](O)C[C@H]21` [Compound 4-65, (2R,3R,11bR)-9-(2-chloro-2,2-difluoroethoxy)-3-(2,2-dimethylpropyl)-10-methoxy-1H,2H,3H,4H,6H,7H,11bH-pyrido[2,1-a]isoquinolin-2-ol]: 8.7 nM, 5.5 mL/min/kg, 227 min, 78 % F and 4.31 mL/min/kg.
The matching figures for `COc1cc2c(cc1OCC(C)(O)C(F)(F)F)CCN1C[C@@H](CC(C)(C)C)[C@H](O)C[C@H]21` (stereo partly drawn) [Compound 4-66, (2R,3R,11bR)-3-(2,2-dimethylpropyl)-10-methoxy-9-(3,3,3-trifluoro-2-hydroxy-2-methylpropoxy)-1H,2H,3H,4H,6H,7H,11bH-pyrido[2,1-a]isoquinolin-2-ol]: 10 nM, no more than 2.97 mL/min/kg, no less than 420 min, no less than 87 % F and no more than 2.59 mL/min/kg.
In the case of `COc1cc2c(cc1OCC13CC(C(F)(F)F)(C1)C3)CCN1C[C@@H](CC(C)(C)C)[C@H](O)C[C@H]21` [Compound 4-67, (2R,3R,11bR)-3-(2,2-dimethylpropyl)-10-methoxy-9-{[3-(trifluoromethyl)bi-cyclo[1.1.1]pentan-1-yl]methoxy}-1H,2H,3H,4H,6H,7H,11bH-pyrido[2,1-a]isoquinolin-2-ol], the inhibitory constant (Ki) at human VMAT2 (setting [2]) came to 14 nM. Besides, in data set [1], the CLint scaled at 0.5 μM was no more than 2.97 mL/min/kg, the half-life at 0.5 μM is no less than 420 min, the “Predicted Max. Bioavailability (% F)” value is no less than 87 % F and the “HLM Predicted Systemic Clearance” value is no more than 2.59 mL/min/kg.

Values taken from US11718618B2, “Substituted pyrido[2,1-a]isoquinolines as VMAT2 inhibitors” (priority 2021, dated 2023).
